Measured values taken from patent publication US20090036424A1, “ASSOCIATION BETWEEN HLA-DRBI*07 ALLELE AND SUSCEPTIBILY TO INCREASED LEVELS OF ALAT FOLLOWING XIMELAGATRAN ADMINISTRATION” (AstraZeneca AB, priority 2005, published 2009).

System: alanine aminotransferase (ALAT)
Assay: ALAT elevation during longer-term ximelagatran treatment in clinical trials
Format: in vivo, human
Source text: Phase III clinical trials have been performed using fixed doses of melagatran and ximelagatran for the prevention of VTE in hip or knee replacement surgery. In addition, clinical trials have been performed using ximelagatran for the treatment and long-term secondary prevention of VTE, and for the prevention of stroke in patients with non-valvular atrial fibrillation. Ximelagatran has also been tested for secondary thrombosis prophylaxis post-myocardial infarction/acute coronary syndrome (ACS).
Alanine aminotransferase (ALAT) is an enzyme mostly expressed in the liver (EC 2.6.1.2). It is also called serum glutamate pyruvate transaminase (SGPT) or alanine transaminase (ALT). This enzyme is released into the plasma by liver cell death, which is a normal event. However, when liver cell death increases, ALAT levels rise above the normal range. The spill-over of this enzyme into blood is routinely measured as a marker of abnormal liver-cell damage. For example, alcoholic or viral hepatitis will increase ALAT levels, as will severe congestive heart failure. An elevated ALAT in the presence of normal levels of plasma alkaline phosphatase helps distinguish liver disease caused by liver-cell damage from diseases caused by problems in biliary ducts.
Elevations of ALAT are normally measured in multiples of the upper limit of normal (ULN), with a reference range of 15-45 U/L in most laboratories. In 1987, in a study of 19,877 healthy Air Force recruits, only 99 (0.5%) had confirmed ALAT elevations (as reviewed in Green & Flamm (2002) Gastroenterology 123:1367-1384).
The increase in ALAT values with ximelagatran usually occurred within the first 6 months of treatment and were mainly asymptomatic. […] Subject to the future regulatory approval of ximelagatran, regular liver function testing (LFT) using an appropriate algorithm may be required if ximelagatran is used for treatment periods exceeding a month. Studies are currently ongoing to try and establish the mechanism of the ALAT elevations, and their hepatic and overall clinical significance.

CCOC(=O)CN[C@@H](C(=O)N1CC[C@H]1C(=O)NCc1ccc(/C(N)=N\O)cc1)C1CCCCC1 [ximelagatran, EtOOC—CH2—(R)Cgl-Aze-Pab-OH]
patients exhibiting levels of alanine aminotransferase (ALAT) 3-fold or more above the upper limit of normal (≧3×ULN) (longer-term treatment (>35 days), 1.2% in the comparator groups): 7.9% | reversibility of ALAT increases (regardless of whether treatment was continued or discontinued): reversible in most patients | time of occurrence of the increase in ALAT values (usually, from start of treatment, mainly asymptomatic): ≤ 6 months
